Assay results reported in patent publication US20160228565A1, “POLYAMIDE BASED PEPTID[…]” (New York University, priority 2014, published 2016).

Test system: HSV-1 (strain SC16)
Experiment: Virus yield reduction assay (plaque assay, Vero cell monolayers)
Format: cell-based
Method: African green monkey kidney cells (Vero) (ATCC CCL-81) were grown in Dulbecco's modified Eagle's medium (DMEM) supplemented with 10% fetal calf serum. HSV-1 (strain SC16), carrying a lacZ gene driven by the CMV IE-1 promoter to express β-galactosidase, was propagated on Vero cells monolayers.
For all experiments, peptides, dendrimers, and peptidodendrimers were dissolved in DMEM without serum and used at concentrations of 0, 5.5, 55, 280, and 550 nM. All experiments were conducted in triplicate. The percentage of infectivity inhibition was calculated by setting the number of plaques obtained in positive controls where no antiviral compounds were added to the cell monolayers to 0% inhibition.
Confluent Vero cell monolayers (12-well plates) were washed with phosphate-buffered saline (PBS) and infected with HSV-1 at multiplicity of infection (MOI) of 1 plaque-forming unit (pfu)/cell for 1 hour at 37° C. The virus inocula were mixed with the peptide/dendrimer/conjugate(s) to be tested, as described in Example 3 above. […] Plaques were stained with X-gal (5-bromo-4-chloro-3-indolyl-([…]-galactopyranoside) and microscopically counted. The mean plaque counts for each drug concentration were expressed as a percentage of the mean plaque count for the control virus. The number of plaques was plotted as a function of drug concentration. See FIG. 6. […]

| Sequence | antiviral activity relative to comparators (in words) (HSV-1 on Vero cells, FIGS. 6 and 18) | inhibitory concentration (range in words) (peptide alone vs peptide conjugated to dendrimer) |
| --- | --- | --- |
| AAHLIDALYAEFLGGRVLTT (SEQ ID NO: 53) (HSV-1 envelope glycoprotein-derived peptide) [PgH, Residues 493-512 of envelope glycoprotein H] | less active than gB8 |  |
| FARLQFTYNHIQRHVRDMEGR (SEQ ID NO: 23) (HSV-1 envelope glycoprotein-derived peptide) [gB8, Residues 503-523 of envelope glycoprotein B] |  | micromolar |
